According to ChEMBL document CHEMBL1201862, “PubChem BioAssay data set” (2004):
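A five-concentration, 48-hour dose response in 96-well plates underlies each endpoint, interpolated linearly between surrounding concentrations. GI50: concentration for 50% inhibition of growth.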 Activity calls are given as the source filed them. No stated cut-off is given here; in the data, active = GI50 up to about 1.1 µM and inactive = higher.

Assays:
Assay in all cases: NCI-60 cell line screen, 48 h
[1] = system: SK-MEL-5
[2] = system: 786-0
[3] = system: SF-539
[4] = system: DU-145
[5] = system: BT-549
[6] = system: A549
[7] = system: U-251
[8] = system: HCT-15
[9] = system: TK-10
[10] = system: NCI-H23
[11] = system: MDA-MB-231
[12] = system: UO-31
[13] = system: RXF 393
[14] = system: A498
[15] = system: ACHN
[16] = system: OVCAR-8
[17] = system: PC-3
[18] = system: CAKI-1
[19] = system: HCC 2998
[20] = system: SR

In the case of COc1cc(/C=C2\Cc3cc(OC)c(OC)cc3C2=O)cc(OC)c1, the GI50 [1] is reported as 10.8 µM (inactive), the GI50 [2] is reported as 19.2 µM (inactive) and the GI50 [3] is reported as 13.1 µM (inactive). For the same compound, the GI50 [4] was > 100 µM (inactive), the GI50 [5] was 15.3 µM (inactive) and the GI50 [6] was > 96.6 µM (inactive). For the same compound, the GI50 [7] was 35.8 µM (inactive), the GI50 [8] was 5.26 µM and the GI50 [9] was 48 µM (inactive). For the same compound, the GI50 [10] was 17.6 µM (inactive), the GI50 [11] was 36.3 µM (inactive) and the GI50 [12] was > 100 µM (inactive). The GI50 [13] was 19.8 µM (inactive), the GI50 [14] was 36.8 µM (inactive) and the GI50 [15] was > 58.2 µM (inactive). For the same compound, the GI50 [16] was > 26 µM (inactive), the GI50 [17] was > 79.1 µM (inactive) and the GI50 [18] was > 46.8 µM (inactive).
In the case of COc1cc(/C=C2\C(=O)N(c3ccccc3Cl)C(c3ccccc3)S2(=O)=O)cc(OC)c1OC (configuration not stated), the GI50 [1] is reported as 18.6 µM (inactive), the GI50 [2] is reported as 31.2 µM (inactive) and the GI50 [3] is reported as 20 µM (inactive). The GI50 [4] was 59 µM (inactive), the GI50 [5] was 36 µM (inactive) and the GI50 [6] was 36.8 µM (inactive). For the same compound, the GI50 [7] was 24.2 µM (inactive), the GI50 [8] was 44.7 µM and the GI50 [9] was 62.7 µM (inactive). For the same compound, the GI50 [10] was 39.1 µM (inactive), the GI50 [11] was 49.9 µM (inactive) and the GI50 [12] was 30.3 µM (inactive). The GI50 [13] was 19.5 µM (inactive), the GI50 [14] was > 100 µM (inactive) and the GI50 [15] was > 100 µM (inactive). The GI50 [16] was 45.8 µM (inactive), the GI50 [18] was 59.7 µM (inactive) and the GI50 [19] was > 100 µM (inactive).
In the case of Fc1cc(F)c(F)c(S)c1F, the GI50 [1] is reported as > 100 µM (inactive), the GI50 [2] is reported as > 100 µM (inactive) and the GI50 [3] is reported as > 100 µM (inactive). The GI50 [4] was > 100 µM (inactive), the GI50 [5] was 26 µM (inactive) and the GI50 [6] was 36.6 µM (inactive). The GI50 [7] was > 100 µM (inactive), the GI50 [8] was 59.6 µM and the GI50 [9] was > 100 µM (inactive). The GI50 [10] was > 100 µM (inactive), the GI50 [11] was 22.1 µM (inactive) and the GI50 [12] was > 100 µM (inactive). The GI50 [13] was 23.7 µM (inactive), the GI50 [14] was 17.5 µM (inactive) and the GI50 [15] was > 100 µM (inactive). The GI50 [16] was 41.1 µM (inactive), the GI50 [17] was 19.8 µM (inactive) and the GI50 [18] was > 100 µM (inactive). For the same compound, the GI50 [19] was 34.4 µM (inactive).
In the case of CC(=O)c1ccc2c3c1[C@H]1O[C@H]1c1cccc(c1-3)[C@@H]1O[C@H]21, the GI50 [1] is reported as 2.17 µM (inactive), the GI50 [2] is reported as 2 µM (inactive) and the GI50 [4] is reported as 2.37 µM (inactive). The GI50 [5] was 1.87 µM (inactive), the GI50 [6] was 2.92 µM (inactive) and the GI50 [7] was 1.93 µM (inactive). For the same compound, the GI50 [8] was 0.959 µM, the GI50 [9] was 4.21 µM (inactive) and the GI50 [20] was 4.57 µM (inactive). For the same compound, the GI50 [10] was 1.49 µM (inactive), the GI50 [11] was 2.14 µM (inactive) and the GI50 [12] was 1.69 µM (inactive). For the same compound, the GI50 [13] was 1.93 µM (inactive), the GI50 [14] was 2.37 µM (inactive) and the GI50 [15] was 1.94 µM (inactive). The GI50 [16] was 1.56 µM (inactive), the GI50 [17] was 2.47 µM (inactive) and the GI50 [18] was 1.29 µM (inactive).
With COc1ccc(/C=N/n2c(Cc3ccc(Cl)cc3)n[nH]c2=O)c(OC)c1 the GI50 [1] was > 10 µM (inactive), the GI50 [2] was 22.4 µM (inactive) and the GI50 [3] was > 100 µM (inactive). For the same compound, the GI50 [4] was 67.8 µM (inactive), the GI50 [5] was 35.2 µM (inactive) and the GI50 [6] was 27.4 µM (inactive). The GI50 [7] was 32.2 µM (inactive), the GI50 [8] was 36.3 µM and the GI50 [9] was 18.2 µM (inactive). For the same compound, the GI50 [10] was 29.4 µM (inactive), the GI50 [11] was 52.5 µM (inactive) and the GI50 [12] was > 100 µM (inactive). For the same compound, the GI50 [13] was 19.1 µM (inactive), the GI50 [14] was 20.4 µM (inactive) and the GI50 [15] was 44.7 µM (inactive). For the same compound, the GI50 [16] was 33 µM (inactive), the GI50 [17] was 28.8 µM (inactive) and the GI50 [18] was 45.4 µM (inactive). For the same compound, the GI50 [19] was 44.6 µM (inactive).
For Clc1ccc(/N=C2\c3ccccc3CN2c2ccc(Cl)cc2)cc1, the GI50 [1] was 1.43 µM (inactive), the GI50 [2] was > 100 µM (inactive) and the GI50 [3] was 30.2 µM (inactive). The GI50 [4] was 11.6 µM (inactive), the GI50 [5] was > 100 µM (inactive) and the GI50 [6] was 29.9 µM (inactive). For the same compound, the GI50 [7] was > 100 µM (inactive), the GI50 [8] was over 100 µM and the GI50 [9] was 87.5 µM (inactive). The GI50 [10] was 89.5 µM (inactive), the GI50 [11] was 53.3 µM (inactive) and the GI50 [12] was > 100 µM (inactive). The GI50 [13] was 29.8 µM (inactive), the GI50 [14] was > 100 µM (inactive) and the GI50 [15] was 0.668 µM (active). The GI50 [16] was > 100 µM (inactive), the GI50 [17] was 74.3 µM (inactive) and the GI50 [18] was > 100 µM (inactive). The GI50 [19] was 28.4 µM (inactive).
In the case of Cc1cc2c(O)c(c1)CN(Cc1ccccc1)Cc1cc(C)cc(c1O)CN(Cc1ccccc1)Cc1cc(C)cc(c1O)CN(Cc1ccccc1)C2, the GI50 [1] is reported as > 100 µM (inactive), the GI50 [2] is reported as > 100 µM (inactive) and the GI50 [3] is reported as > 100 µM (inactive). The GI50 [4] was > 100 µM (inactive), the GI50 [5] was > 100 µM (inactive) and the GI50 [6] was > 100 µM (inactive). The GI50 [7] was > 100 µM (inactive), the GI50 [8] was over 100 µM and the GI50 [9] was > 100 µM (inactive). The GI50 [10] was > 100 µM (inactive), the GI50 [11] was > 100 µM (inactive) and the GI50 [12] was > 100 µM (inactive). The GI50 [13] was 75.2 µM (inactive), the GI50 [14] was > 100 µM (inactive) and the GI50 [15] was > 100 µM (inactive). The GI50 [16] was > 100 µM (inactive), the GI50 [17] was > 100 µM (inactive) and the GI50 [18] was > 100 µM (inactive). For the same compound, the GI50 [19] was > 100 µM (inactive).
In the case of O=P(OCc1ccccc1)(OCc1ccccc1)C(O)/C=C/c1ccccc1 (configuration not stated), the GI50 [1] is reported as 19.3 µM (inactive), the GI50 [2] is reported as 17.7 µM (inactive) and the GI50 [4] is reported as 42.9 µM (inactive). For the same compound, the GI50 [5] was 28.2 µM (inactive), the GI50 [6] was 32.9 µM (inactive) and the GI50 [7] was 13.1 µM (inactive). The GI50 [8] was 36.8 µM, the GI50 [20] was 19.9 µM (inactive) and the GI50 [10] was 20.2 µM (inactive). For the same compound, the GI50 [11] was 22.3 µM (inactive), the GI50 [12] was 26.6 µM (inactive) and the GI50 [13] was 33.8 µM (inactive). The GI50 [14] was 17.9 µM (inactive), the GI50 [15] was 29.1 µM (inactive) and the GI50 [16] was 24 µM (inactive). The GI50 [17] was 28 µM (inactive) and the GI50 [18] was 35.7 µM (inactive).
